Laboratory results from patent publication US8916599B2, “1H-benz imidazole-5-carboxamides as anti-inflammatory agents” (Orexo AB, priority 2008, dated 2014).
Like-named read-outs stand apart in the source and are kept apart here.

Molecular target: T1, recombinant human mPGES-1 (Homo sapiens, UniProt O14684)
T1 construct: made in house; host or cells: Rosetta E. coli (microsomal/membrane fraction)
T1 sequence (O14684 1-152): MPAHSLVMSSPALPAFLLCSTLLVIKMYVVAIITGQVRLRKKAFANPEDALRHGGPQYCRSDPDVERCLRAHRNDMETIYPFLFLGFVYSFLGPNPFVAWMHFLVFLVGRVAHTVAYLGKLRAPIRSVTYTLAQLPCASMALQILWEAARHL
Assay: mPGES-1 inhibition test (microsomes, PGH2 substrate, HTRF detection of PGE2)
Type: biochemical
Settings: for inhibition at 1 µM: inhibition of mPGES-1 at 1 μM (marked in cell)
Protocol: Microsomes from Rosetta E. coli bacteria expressing recombinant human mPGES-1 is dissolved in 0.1 M KPi pH 7.4 buffer containing 2.5 mM GSH. 50 μl of the enzyme is subsequently dispensed in a 384-well plate. 0.5 μl of the inhibitor dissolved in DMSO at is thereafter added to each well and incubated for 25 minutes at room temperature. Subsequently, 2 μl of PGH2 dissolved in an appropriate solvent is added to each well and after one minute the acidified stop solution containing FeCl2 is added. 4 μl of the total volume is transferred to a separate plate and diluted 750-fold in two separate steps before HTRF detection of PGE2.
The HTRf detection is performed by the use of a commercially available kit from CisBio essentially according to the manufacturer's protocol. Briefly, 10 μl of the diluted sample is transferred to a white 384-well plate. 5 μl of d2 and 5 μl Eu3+-Cryptate labeled anti-PGE2 is added to each well containing samples by the use of a Multidrop. The plate is covered with a plastic self-adhesive film, centrifuged at 1200 rpm for 1 minute and subsequently stored at +4° C. over night.
After over night incubation the fluorescence is measured by the use of an appropriate microplate reader. The fluorescence of europium cryptate, and d2 are measured using the following excitation and emission wavelength, europium cryptate: λmax^ex=307 nm, λmax^em=620 nm and d2: λmax^ex=620 nm, λmax^em=665 nm), respectively. The extent of the specific FRET is measured as a ratio of the emission intensity at 665 nm vs. that at 620 nm. A standard curve using synthetic PGE2 is used to quantify the amount of PGE2 in unknown samples.

Compound | inhibition at 10 µM (inhibition of mPGES-1 at 10 μM) | also measured
COc1cc2c(cc1C(=O)NCc1ncccc1C(F)(F)F)nc(Nc1c(Cl)cccc1Cl)n2C [Example 370, 2-(2,6-Dichlorophenylamino)-6-methoxy-1-methyl-N-((3-trifluoromethyl-pyridin-2-yl)methyl)-1H-benzimidazole-5-carboxamide] | 100% | –
CC1(C)CCC(NC(=O)c2cc3nc(Nc4c(Cl)ccc(Cl)c4F)[nH]c3cc2F)CC1 [Example 596, 2-(3,6-Dichloro-2-fluoro-phenylamino)-N-(4,4-dimethyl-cyclohex-1-yl)-6-fluoro-1H-benzimidazole-5-carboxamide] | 95% | –
CCC1CCC(NC(=O)c2cc3nc(Nc4c(F)cccc4Cl)n(C)c3cc2F)CC1 (stereo not drawn) [Example 362, N-(4-Ethylcyclohexyl)-2-(2-chloro-6-fluorophenylamino)-6-fluoro-1-methyl-1H-benzimidazole-5-carboxamide] | 100% | –
Cc1ccc(Cl)c(Nc2nc3cc(C(=O)NC4CCCCC4)c(F)cc3n2C)c1F [Example 623, 2-(6-Chloro-2-fluoro-3-methyl-phenylamino)-6-fluoro-N-cyclohexyl-1-methyl-1H-benzimidazole-5-carboxamide] | – | inhibition at 1 µM: 93%
CC1CCC(NC(=O)c2ccc3[nH]c(Nc4c(Cl)cccc4Cl)nc3c2)CC1 (stereo not drawn) [Example 215, 2-(2,6-Dichloro-phenylamino)-1H-benzimidazole-5-carboxylic acid (4-methyl-cyclohexyl)-amide] | 96% | –
Cc1cc(NC(=O)c2cc3nc(Nc4c(Cl)cccc4Cl)n(C)c3cc2F)ncc1Cl [Example 127, 2-(2,6-Dichloro-phenylamino)-6-fluoro-1-methyl-1H-benzimidazole-5-carboxylic acid (5-chloro-4-methyl-pyridin-2-yl)-amide] | 100% | –
O=C(Nc1ccc(Cl)c(Cl)c1Cl)c1ccc2[nH]c(Nc3c(Cl)cccc3Cl)nc2c1 [Example 312, 2-(2,6-Dichloro-phenylamino)-1H-benzimidazole-5-carboxylic acid (2,3,4-trichloro-phenyl)-amide] | 100% | –
O=C(N[C@H]1CC[C@H](C(F)(F)F)CC1)c1cc2nc(Nc3c(Cl)cccc3Cl)[nH]c2cc1OCC(F)(F)F [Example 589, 2-(2,6-Dichloro-phenylamino)-6-(2,2,2-trifluoroethoxy)-N-(trans-4-trifluormethyl-cyclohex-1-yl)-1H-benzimidazole-5-carboxamide] | 100% | –
Cc1cc(Br)cnc1NC(=O)c1ccc2[nH]c(Nc3c(Cl)cccc3Cl)nc2c1 [Example 183, 2-(2,6-Dichloro-phenylamino)-1H-benzimidazole-5-carboxylic acid (5-bromo-3-methyl-pyridin-2-yl)-amide] | 100% | –
Cn1c(Nc2c(Cl)cccc2Cl)nc2cc(C(=O)NCc3c(C(F)(F)F)ccc[n+]3[O-])c(F)cc21 [Example 568, 2-((2-(2,6-Dichlorophenylamino)-6-fluoro-1-methyl-1H-benzimidazole-5-carboxamido)methyl)-3-trifluoromethyl-pyridine 1-oxide] | 60% | –
O=C(N[C@H]1CC[C@@H](C(F)(F)F)CC1)c1ccc2[nH]c(Nc3c(Cl)cccc3Cl)nc2c1 [Example 168, 2-(2,6-Dichloro-phenylamino)-1H-benzimidazole-5-carboxylic acid (cis-4-trifluoromethyl-cyclohexyl)-amide] | 100% | –
O=C(Nc1cccc(Cl)c1)c1cc(Br)c2[nH]c(Nc3c(Cl)cccc3Cl)nc2c1 [compound 351] | 100% | –
COc1cc2[nH]c(Nc3c(Cl)cc(F)cc3Cl)nc2cc1C(=O)N[C@H]1CC[C@H](C(F)(F)F)CC1 [Example 579, 2-(2,6-Dichloro-4-fluoro-phenylamino)-6-methoxy-N-(trans-4-trifluoromethyl-cyclohex-1-yl)-1H-benzimidazole-5-carboxamide] | 100% | –
Cc1cc(NC(=O)c2ccc3nc(Nc4c(Cl)cccc4Cl)[nH]c3c2)cc(Cl)n1 [Example 198, 2-(2,6-Dichloro-phenylamino)-3H-benzimidazole-5-carboxylic acid (2-chloro-6-methyl-pyridin-4-yl)-amide] | 100% | –
NCCn1c(Nc2c(Cl)cccc2Cl)nc2cc(C(=O)Nc3cc(Cl)ccn3)ccc21 [Example 211, 2-(2,6-Dichloro-phenylamino)-1-(2-amino-ethyl)-1H-benzimidazole-5-carboxylic acid (4-chloro-pyridin-2-yl)-amide (trifluoroacetate)] | 100% | –
Cc1cc(NC(=O)c2ccc3[nH]c(Nc4c(Cl)cccc4Cl)nc3c2)ncc1Br [Example 182, 2-(2,6-Dichloro-phenylamino)-1H-benzimidazole-5-carboxylic acid (5-bromo-4-methyl-pyridin-2-yl)-amide] | 99% | –
Cn1c(Nc2ccc(C(N)=O)cc2Cl)nc2cc(C(=O)Nc3ccc(Br)cc3)ccc21 [Example 543, N-(4-Bromophenyl)-2-(4-carbamoyl-2-chlorophenylamino)-1-methyl-1H-benzimidazole-5-carboxamide] | 91% | –
O=C(Nc1cc(Cl)cc(Cl)c1)c1ccc2[nH]c(Nc3c(Cl)cccc3Cl)nc2c1 [Example 112, 2-(2,6-Dichloro-phenylamino)-1H-benzimidazole-5-carboxylic acid (3,5-dichloro-phenyl)-amide] | 97% | –
Cn1c(Nc2c(F)cccc2Cl)nc2cc(C(=O)NC3CCC(C)(C)CC3)c(F)cc21 [Example 430, 2-(2-Chloro-6-fluorophenylamino)-N-(4,4-dimethylcyclohexyl)-6-fluoro-1-methyl-1H-benzimidazole-5-carboxamide] | 100% | –
CC(C)CCCNC(=O)c1cc2nc(Nc3c(Cl)cccc3Cl)n(C)c2cc1F [Example 408, 2-(2,6-Dichlorophenylamino)-6-fluoro-1-methyl-N-(4-methylpentyl)-1H-benzimidazole-5-carboxamide] | 100% | –
Cc1ccc(NC(=O)c2ccc3[nH]c(Nc4c(Cl)cccc4Cl)nc3c2)cc1Cl [Example 286, 2-(2,6-Dichloro-phenylamino)-1H-benzimidazole-5-carboxylic acid (3-chloro-4-methyl-phenyl)-amide] | 100% | –
O=C(NCc1ccccn1)c1ccc2[nH]c(Nc3c(Cl)cccc3Cl)nc2c1 [Example 235, 2-(2,6-Dichloro-phenylamino)-1H-benzimidazole-5-carboxylic acid (pyridin-2-ylmethyl)-amide] | 79% | –
COc1cc2[nH]c(Nc3c(Cl)cccc3Cl)nc2cc1C(=O)NCC(F)(F)C(F)(F)C(F)(F)F [Example 632, N-(2,2,3,3,4,4,4-heptafluoro-butyl)-2-(2,6-dichlorophenylamino)-6-methoxy-1H-benzimidazole-5-carboxamide] | – | inhibition at 10 µM: 99%
O=C(Nc1cccc(Br)c1)c1ccc2[nH]c(Nc3c(Cl)cccc3Cl)nc2c1 [Example 69, 2-(2,6-Dichloro-phenylamino)-1H-benzimidazole-5-carboxylic acid (3-bromo-phenyl)-amide] | – | inhibition at 1 µM: 100%
Cc1ccnc(NC(=O)c2ccc3[nH]c(Nc4c(Cl)cccc4Cl)nc3c2)c1 [Example 116, 2-(2,6-Dichloro-phenylamino)-1H-benzimidazole-5-carboxylic acid (4-methyl-pyridin-2-yl)-amide] | 92% | –
CCCCCCNC(=O)c1cc2nc(Nc3c(Cl)cccc3Cl)n(C)c2cc1F [Example 373, 2-(2,6-Dichlorophenylamino)-6-fluoro-N-hexyl-1-methyl-1H-benzimidazole-5-carboxamide] | 100% | –
Cc1nc(NC(=O)c2ccc3[nH]c(Nc4c(Cl)cccc4Cl)nc3c2)cc2c1CCCC2 [Example 132, 2-(2,6-Dichloro-phenylamino)-1H-benzimidazole-5-carboxylic acid (1-methyl-5,6,7,8-tetrahydro-isoquinolin-3-yl)-amide] | 97% | –
NCCCn1c(Nc2c(Cl)cccc2Cl)nc2cc(C(=O)Nc3cc(Cl)ccn3)ccc21 [Example 208, 2-(2,6-Dichloro-phenylamino)-1-(3-amino-propyl)-1H-benzimidazole-5-carboxylic acid (4-chloro-pyridin-2-yl)-amide(trifluoro-acetate)] | 100% | –
Cn1c(Nc2c(Cl)cc(F)cc2Cl)nc2cc(C(=O)NC3CCC(C)(C)CC3)ccc21 [Example 420, 2-(2,6-Dichloro-4-fluorophenylamino)-N-(4,4-dimethylcyclohexyl)-1-methyl-1H-benzimidazole-5-carboxamide] | 100% | –
O=C(Nc1ccc(Br)cc1)c1cc2[nH]c(Nc3c(Cl)cccc3Cl)nc2c(F)c1F [Example 395, N-(4-Bromophenyl)-2-(2,6-dichlorophenylamino)-4,5-difluoro-1H-benzimidazole-6-carboxamide] | 100% | –
